From the Kinase Knowledgebase extract (Sharma et al. 2016)

Assays:
Assay in all cases: Enzyme Assay
PIK3CB (Human) = PIK3CB (Human) (UniProt P42338)
PIK3CG (human) = PIK3CG (human) (UniProt P48736)
PIK3CD (Human) = PIK3CD (Human) (UniProt O00329)
PIK3CD (Human), sequence (O00329 whole entry, looked up): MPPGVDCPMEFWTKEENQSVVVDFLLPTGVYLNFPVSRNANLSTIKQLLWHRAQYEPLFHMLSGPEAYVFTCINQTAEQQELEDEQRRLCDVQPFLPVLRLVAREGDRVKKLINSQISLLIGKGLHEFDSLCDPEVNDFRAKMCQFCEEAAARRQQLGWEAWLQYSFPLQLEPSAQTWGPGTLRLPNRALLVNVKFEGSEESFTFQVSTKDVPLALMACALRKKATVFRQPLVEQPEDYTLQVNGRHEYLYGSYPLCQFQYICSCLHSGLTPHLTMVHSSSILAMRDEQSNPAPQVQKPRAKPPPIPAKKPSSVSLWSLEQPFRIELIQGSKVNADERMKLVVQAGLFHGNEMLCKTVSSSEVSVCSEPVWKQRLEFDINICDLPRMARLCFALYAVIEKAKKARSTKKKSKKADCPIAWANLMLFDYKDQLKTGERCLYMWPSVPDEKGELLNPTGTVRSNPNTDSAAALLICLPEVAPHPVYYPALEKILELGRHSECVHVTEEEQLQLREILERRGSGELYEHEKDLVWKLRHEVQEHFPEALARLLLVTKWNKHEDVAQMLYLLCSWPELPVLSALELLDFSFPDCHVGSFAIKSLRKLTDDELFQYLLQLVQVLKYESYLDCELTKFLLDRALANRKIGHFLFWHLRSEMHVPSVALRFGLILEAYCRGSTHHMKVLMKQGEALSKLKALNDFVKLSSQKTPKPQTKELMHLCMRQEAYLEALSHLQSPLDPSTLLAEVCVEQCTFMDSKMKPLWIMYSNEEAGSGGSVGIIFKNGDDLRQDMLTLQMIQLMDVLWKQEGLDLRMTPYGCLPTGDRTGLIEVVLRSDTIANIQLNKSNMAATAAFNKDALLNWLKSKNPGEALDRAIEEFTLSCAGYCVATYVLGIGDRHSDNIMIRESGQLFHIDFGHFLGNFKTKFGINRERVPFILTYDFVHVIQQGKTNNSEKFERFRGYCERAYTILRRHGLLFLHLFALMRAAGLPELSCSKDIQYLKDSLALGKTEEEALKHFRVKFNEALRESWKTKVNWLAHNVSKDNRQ

PIK3CG (human), sequence (P48736 whole entry, looked up): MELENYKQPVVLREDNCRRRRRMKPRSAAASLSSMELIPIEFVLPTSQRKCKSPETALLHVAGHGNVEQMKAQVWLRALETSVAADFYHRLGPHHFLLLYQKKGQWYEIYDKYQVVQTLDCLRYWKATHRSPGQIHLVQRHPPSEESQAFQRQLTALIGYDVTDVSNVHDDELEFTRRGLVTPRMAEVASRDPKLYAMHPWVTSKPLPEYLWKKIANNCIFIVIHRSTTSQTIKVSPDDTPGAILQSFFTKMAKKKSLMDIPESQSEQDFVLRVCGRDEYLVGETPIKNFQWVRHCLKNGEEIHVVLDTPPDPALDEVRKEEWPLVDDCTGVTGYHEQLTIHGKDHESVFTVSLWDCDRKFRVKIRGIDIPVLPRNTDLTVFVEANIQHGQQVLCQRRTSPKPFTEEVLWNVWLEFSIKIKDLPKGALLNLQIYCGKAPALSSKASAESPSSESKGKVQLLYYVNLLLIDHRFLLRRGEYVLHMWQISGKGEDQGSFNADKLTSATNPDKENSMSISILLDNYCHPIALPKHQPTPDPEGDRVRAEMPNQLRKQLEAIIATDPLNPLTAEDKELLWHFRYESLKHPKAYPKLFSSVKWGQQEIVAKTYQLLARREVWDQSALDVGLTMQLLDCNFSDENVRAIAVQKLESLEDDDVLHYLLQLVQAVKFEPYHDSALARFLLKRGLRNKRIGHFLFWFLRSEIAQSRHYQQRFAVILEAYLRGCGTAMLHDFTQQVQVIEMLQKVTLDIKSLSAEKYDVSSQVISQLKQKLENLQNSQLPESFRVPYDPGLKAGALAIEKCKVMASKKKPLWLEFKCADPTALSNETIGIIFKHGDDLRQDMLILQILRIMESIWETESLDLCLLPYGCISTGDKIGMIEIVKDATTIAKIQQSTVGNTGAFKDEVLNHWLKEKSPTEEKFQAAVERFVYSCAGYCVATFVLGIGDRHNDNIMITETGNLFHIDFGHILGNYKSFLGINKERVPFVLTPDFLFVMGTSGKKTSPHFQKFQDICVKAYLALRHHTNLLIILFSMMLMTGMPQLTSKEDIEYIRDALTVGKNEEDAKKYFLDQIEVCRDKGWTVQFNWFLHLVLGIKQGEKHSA
PIK3CB (Human), sequence (P42338 whole entry, looked up): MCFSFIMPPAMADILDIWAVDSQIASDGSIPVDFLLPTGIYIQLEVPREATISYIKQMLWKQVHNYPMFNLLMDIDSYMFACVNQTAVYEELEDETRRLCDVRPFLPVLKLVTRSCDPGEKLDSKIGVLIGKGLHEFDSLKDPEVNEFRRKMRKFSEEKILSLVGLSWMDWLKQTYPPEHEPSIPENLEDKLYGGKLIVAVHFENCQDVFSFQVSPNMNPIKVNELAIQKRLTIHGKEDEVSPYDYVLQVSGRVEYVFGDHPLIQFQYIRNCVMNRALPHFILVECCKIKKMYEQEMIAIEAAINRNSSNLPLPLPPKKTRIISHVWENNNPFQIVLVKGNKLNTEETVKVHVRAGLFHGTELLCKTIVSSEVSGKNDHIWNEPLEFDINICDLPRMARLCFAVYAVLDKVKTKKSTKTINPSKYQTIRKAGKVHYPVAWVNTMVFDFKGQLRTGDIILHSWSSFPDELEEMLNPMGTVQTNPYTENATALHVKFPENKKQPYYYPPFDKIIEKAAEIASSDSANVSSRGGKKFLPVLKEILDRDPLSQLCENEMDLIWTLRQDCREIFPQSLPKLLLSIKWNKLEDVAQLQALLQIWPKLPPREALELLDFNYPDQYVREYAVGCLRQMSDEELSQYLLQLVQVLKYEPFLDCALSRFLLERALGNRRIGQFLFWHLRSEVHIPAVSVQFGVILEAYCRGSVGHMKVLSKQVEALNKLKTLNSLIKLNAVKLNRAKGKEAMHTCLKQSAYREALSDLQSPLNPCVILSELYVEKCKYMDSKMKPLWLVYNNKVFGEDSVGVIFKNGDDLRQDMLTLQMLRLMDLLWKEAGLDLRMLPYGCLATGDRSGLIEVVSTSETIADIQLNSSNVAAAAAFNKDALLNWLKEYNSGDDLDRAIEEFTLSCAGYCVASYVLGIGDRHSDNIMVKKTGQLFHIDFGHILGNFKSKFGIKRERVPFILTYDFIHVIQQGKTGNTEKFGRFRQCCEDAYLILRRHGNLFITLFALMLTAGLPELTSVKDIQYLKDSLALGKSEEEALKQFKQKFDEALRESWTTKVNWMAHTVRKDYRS

IC50 (PIK3CB (Human)) | IC50 (PIK3CG (human)) | IC50 (PIK3CD (Human)) | Compound
720 nM | > 10000 nM |  | Nc1cnc(-n2c([C@@H](Nc3ncnc(N)c3Cl)C3CC3)nc3cccc(Cl)c3c2=O)cn1
1100 nM | > 10000 nM | 26 nM | Nc1cnc(-n2c([C@@H](Nc3ncnc(N)c3Cl)C3CC3)nc3c(Cl)ccc(Cl)c3c2=O)cn1
 | > 10000 nM |  | C[C@H](Nc1ncnc(N)c1C#N)c1nc2c(F)ccc(Cl)c2c(=O)n1-c1cnc(N)cn1
> 10000 nM | > 10000 nM |  | C[C@H](Nc1ncnc2[nH]nnc12)c1nc2c(F)cccc2c(=O)n1-c1cnc(N)cn1
 | > 10000 nM |  | Nc1cnc(-n2c([C@@H](Nc3nc(N)nc(N)c3Cl)C3CC3)nc3cccc(Cl)c3c2=O)cn1
 | > 10000 nM |  | C[C@H](Nc1nc(N)nc(N)c1Cl)c1nc2c(F)ccc(Cl)c2c(=O)n1-c1cnc(N)cn1
530 nM | > 10000 nM | 780 nM | C[C@H](Nc1nc(N)nc(N)c1Cl)c1nc2c(F)cc(F)cc2c(=O)n1-c1cnc(N)cn1
 | > 10000 nM |  | C[C@H](Nc1nc(N)nc(N)c1Cl)c1nc2c(Cl)ccc(Cl)c2c(=O)n1-c1cnc(N)cn1
570 nM | > 10000 nM | 500 nM | C[C@H](Nc1nc(N)nc(N)c1Cl)c1nc2c(Cl)cc(F)cc2c(=O)n1-c1cnc(N)cn1
 | > 10000 nM |  | C[C@H](Nc1ncnc2occc12)c1nc2c(F)ccc(Cl)c2c(=O)n1-c1cnc(N)cn1
200 nM | > 10000 nM | 340 nM | C[C@H](Nc1nc(N)nc(C(F)F)c1C#N)c1nc2c(Cl)cc(F)cc2c(=O)n1-c1cnc(N)cn1
 | > 10000 nM |  | Nc1cnc(-n2c([C@@H](Nc3nc(N)nc(N)c3Cl)C3CC3)nc3c(Cl)ccc(Cl)c3c2=O)cn1

Compound | IC50 (PIK3CB (Human)) | IC50 (PIK3CG (human)) | IC50 (PIK3CD (Human))
C[C@H](Nc1ncnc(N)c1Cl)c1nc2cccc(Cl)c2c(=O)n1-c1cnc(N)cn1 | 360 nM | > 10000 nM | 54 nM
